In US11976083B2, “Inhibitors of peptidylarginine deiminases” (Gilead Sciences, Inc., priority 2020, dated 2024):
pIC50: −log10 of the molar value.

What follows are compounds tested against T1, human PAD4 (Homo sapiens, UniProt Q9UM07) (assay: In vitro PAD4 BAEE biochemical assay). Conditions: BAEE substrate 3 mM, 5 nM PAD4, 2 mM calcium chloride; geometric mean of multiple experiments.
T1 construct: human PAD4 (NM_012387), A2-P663, was PCR amplified; His-SUMO (N, cleaved yes); made in house; host or cells: E. coli BL21(DE3)
T1 sequence (Q9UM07 2-663): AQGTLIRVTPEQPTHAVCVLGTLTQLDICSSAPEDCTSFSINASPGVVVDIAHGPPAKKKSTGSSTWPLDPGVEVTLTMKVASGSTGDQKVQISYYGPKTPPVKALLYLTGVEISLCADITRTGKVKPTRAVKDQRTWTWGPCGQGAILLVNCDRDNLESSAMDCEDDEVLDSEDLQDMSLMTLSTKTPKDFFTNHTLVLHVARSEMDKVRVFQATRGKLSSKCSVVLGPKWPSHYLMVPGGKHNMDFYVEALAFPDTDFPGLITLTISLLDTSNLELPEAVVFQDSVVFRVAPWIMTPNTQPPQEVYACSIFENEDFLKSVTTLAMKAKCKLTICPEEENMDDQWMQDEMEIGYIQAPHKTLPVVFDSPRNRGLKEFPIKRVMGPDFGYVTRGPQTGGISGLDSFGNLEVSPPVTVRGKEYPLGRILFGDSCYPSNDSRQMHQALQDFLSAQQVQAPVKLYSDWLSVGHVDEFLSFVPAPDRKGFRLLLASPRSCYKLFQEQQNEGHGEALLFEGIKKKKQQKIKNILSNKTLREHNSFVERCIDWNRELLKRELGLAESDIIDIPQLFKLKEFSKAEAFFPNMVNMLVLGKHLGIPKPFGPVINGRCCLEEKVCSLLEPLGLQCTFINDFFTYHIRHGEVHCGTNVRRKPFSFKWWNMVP
Summary of the method: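 Fluorescence read-out (ex 405/em 535 nm) of isoindole formed from ammonia, o-phthalaldehyde and DTT after EDTA stop. Reaction: 5 nM PAD4, 2 mM CaCl2, 3 mM BAEE, 2 h, 25 °C, after 30 min enzyme–compound preincubation. Normalised to BB-Cl-Amidine (50 µM) and DMSO controls.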

pIC50 | Structure (SMILES)
6.11 | COc1cc(C(=O)N2CCC[C@@H](N)C2)cc2nc(-c3cc4ccc5nc4n3CCCCCCc3cn(nn3)C5C)n(C)c12 (stereo partly drawn) [Example 25, [(3˜{R})-3-amino-1-piperidyl]-[7-methoxy-1-methyl-2-(2-methyl-3,4,5,13,19-pentazatetracyclo[11.5.2.1^{3,6}.0^{16,20}]henicosa-1(19),4,6(21),14,16(20),17-hexaen-14-yl)benzimidazol-5-yl]methanone]
7.52 | COc1cc(C(=O)N2C[C@H](N)[C@@H]3CC[C@H]2C3)cc2nc(-c3cc4ccc5nc4n3CCCCCc3ccc(F)cc3C(=O)N[C@@H]5C)n(C)c12 [Example 899, (2~{R})-17-[5-[(1~{S},4~{R}, 5~{R})-4-amino-2-azabicyclo [3.2.1]octane-2-carbonyl]-7-methoxy-1-methyl-benzimidazol-2-yl]-7-fluoro-2-methyl-3,16,22-triazatetracyclo [14.5.2.0^{5,10}.0^{19,23}] tricosa-1(22),5(10),6,8,17, 19(23),20-heptaen-4-one]
7.11 | COc1cc(C(=O)N2CC[C@@H](OC)[C@@H](N)C2)cc2nc(-c3cc4ccc5nc4n3CCCCCC[C@@](C)(c3ccccn3)C(=O)N[C@@H]5C)n(C)c12 [Example 862, (8~{S},11~{R})-17-[5-[(3~{S}, 4~{R})-3-amino-4-methoxy-piperidine-1-carbonyl]-7-methoxy-1-methyl-benzimidazol-2-yl]-8,11-dimethyl-8-(2-pyridyl)-1,10,19-triazatricyclo[10.5.2.0^{15,18}] nonadeca-12(19), 13,15(18),16-tetraen-9-one]
7.41 | COc1cc(C(=O)N2CC[C@@H](OC)[C@@H](N)C2)cc2nc(-c3cc4ccc5nc4n3CCCCCC[C@](C)(c3ccccn3)C(=O)N[C@@H]5C)n(C)c12 [Example 861, (8~{R},11~{R})-17-[5-[(3~ {S},4~{R})-3-amino-4-methoxy-piperidine-1-carbonyl]-7-methoxy-1-methyl-benzimidazol-2-yl]-8,11-dimethyl-8-(2-pyridyl)-1,10,19-triazatricyclo[10.5.2.0^{15,18}] nonadeca-12(19),13,15(18), 16-tetraen-9-one]
7.32 | COc1cc(C(=O)N2C[C@H](N)[C@@H]3CC[C@H]2C3)cc2nc(-c3cc4ccc5nc4n3CCCCCc3cccc(F)c3C(=O)N[C@@H]5C)n(C)c12 [Example 902, (2~{R})-17-[5-[(1~{S),4~{R}, 5~{R})-4-amino-2-azabicyclo [3.2.1]octane-2-carbonyl]-7-methoxy-1-methyl-benzimidazol-2-yl]-6-fluoro-2-methyl-3,16,22-triazatetracyclo [14.5.2.0^{5,10}.0^{19,23}] tricosa-1(22),5(10),6,8,17, 19(23),20-heptaen-4-one]
7.23 | COc1cc(C(=O)N2C[C@H](N)[C@@H]3CC[C@H]2C3)cc2nc(-c3cc4ccc5nc4n3CCCCCc3nc(Cl)ccc3C(=O)N[C@@H]5C)c(C3CC3)n12 [Example 768, (2~{R})-17-[7-[(1~{S},4~{R}, 5~{R})-4-amino-2-azabicyclo [3.2.1]octane-2-carbonyl]-3-cyclopropyl-5-methoxy-imidazo[1,2-a]pyridin-2-yl]-8-chloro-2-methyl-3,9,16,22-tetrazatetracyclo[14.5.2.0^ {5,10}.0^{19,23}]tricosa-1(22),5(10),6,8,17,19(23),20-heptaen-4-one]
7.08 | COc1cc(C(=O)N2CCC[C@@H](N)C2)cc2nc(-c3cc4ccc5nc4n3CCCCCCC(=O)N[C@@H]5C)n(C3CC3)c12 [Example 231, (10~{R})-16-[5-[(3~{R})-3-aminopiperidine-1-carbonyl]-1-cyclopropyl-7-methoxy-benzimidazol-2-yl]-10-methyl-1,9,18-triazatricyclo[9.5.2.0^{14,17}]octadeca-11(18),12,14(17),15-tetraen-8-one]
7.74 | COc1cc(C(=O)N2C[C@H](N)[C@@H]3CC[C@H]2C3)cc2nc(-c3cc4ccc5nc4n3CCCCC[C@@H]3C[C@H]3C(=O)N[C@@H]5C)n(C3CC3)c12 [Example 767, (2~{R},5~{R},7~{R})-14-[5-[(1~{S},4~{R},5~{R})-4-amino-2-azabicyclo[3.2.1]octane-2-carbonyl]-1-cyclopropyl-7-methoxy-benzimidazol-2-yl]-2-methyl-3,13,19-triazatetracyclo[11.5.2.0^ {5,7}.0^{16,20}]icosa-1(19),14,16(20),17-tetraen-4-one]
5.90 | COc1cc(C(=O)N[C@H]2CNCC[C@@H]2C(F)(F)F)cc2nc(-c3cc4ccc5nc4n3CCCCCCC(C)(C)C(=O)N[C@@H]5C)n(C)c12 [Example 380, 7-methoxy-1-methyl-~{N}-[(3~{R},4~{S})-4-(trifluoromethyl)-3-piperidyl]-2-[(11~{R})-8,8,11-trimethyl-9-oxo-1,10,19-triazatricyclo[10.5.2.0^{15,18}]nonadeca-12(19),13,15(18),16-tetraen-17-yl]benzimidazole-5-carboxamide]
6.87 | COc1cc(C(=O)N2CC[C@@H](OC(F)F)[C@@H](N)C2)cc2nc(-c3cc4ccc5nc4n3CCCCCC[C@](C)(C(F)(F)F)C(=O)N[C@@H]5C)n(C)c12 [Example 725, (8~{S},11~{R})-17-[5-[(3~ {S},4~{R})-3-amino-4-(difluoromethoxy)piperidine-1-carbonyl]-7-methoxy-1-methyl-benzimidazol-2-yl]-8,11-dimethyl-8-(trifluoromethyl)-1,10,19-triazatricyclo[10.5.2.0^ {15,18}]nonadeca-12(19),13,15(18),16-tetraen-9-one]
7.21 | C[C@H]1NC(=O)C(C)(C)CCCCCCn2c(-c3nc4cc(C(=O)N[C@H]5CNCC[C@@H]5F)c(F)cc4n3C3CC3)cc3ccc1nc32 [Example 179, 1-cyclopropyl-6-fluoro-~{N}-[(3~{S},4~{S})-4-fluoro-3-piperidyl]-2-[(11~{R})-8,8,11-trimethyl-9-oxo-1,10,19-triazatricyclo[10.5.2.0^{15,18}]nonadeca-12(19),13,15(18),16-tetraen-17-yl]benzimidazole-5-carboxamide]
7.48 | C[C@@H]1[C@H](N)CCCN1C(=O)c1cc(F)c2c(c1)nc(-c1cc3ccc4nc3n1CCCCCc1nc(Cl)ccc1C(=O)N[C@@H]4C)n2C [Example 741, (2~{R})-17-[5-[(2~{R},3~{R})-3-amino-2-methyl-piperidine-1-carbonyl]-7-fluoro-1-methyl-benzimidazol-2-yl]-8-chloro-2-methyl-3,9,16,22-tetrazatetracyclo[14.5.2.0^ {5,10}.0^{19,23}]tricosa-1(22),5(10),6,8,17,19(23),20-heptaen-4-one]
7.52 | COc1cc(C(=O)N2C[C@H](N)[C@@H]3CC[C@H]2C3)cc2nc(-c3cc4ccc5c(F)c4n3CC(F)(F)CCC[C@@H]3C[C@H]3C(=O)N[C@@H]5C)n(C)c12 [Example 437, (2~{R},5~{R},7~{R})-14-[5-[(1~{S},4~{R},5~{R})-4-amino-2-azabicyclo[3.2.1]octane-2-carbonyl]-7-methoxy-1-methyl-benzimidazol-2-yl]-11,11,19-trifluoro-2-methyl-3,13-diazatetracyclo[11.5.2.0^{5,7}.0^{16,20}] icosa-1(19),14,16(20),17-tetraen-4-one]
7.33 | COCCn1c(-c2cc3ccc4nc3n2CCCCC[C@@H]2C[C@H]2C(=O)N[C@@H]4C)nc2cc(C(=O)N[C@H]3CNCC[C@@H]3F)c(F)c(F)c21 [Example 559, 6,7-difluoro-~{N}-[(3~{S},4~{S})-4-fluoro-3-piperidyl]-1-(2-methoxyethyl)-2-[(2~{R},5~{R},7~ {R})-2-methyl-4-oxo-3,13,19-triazatetracyclo [11.5.2.0^{5,7}.0^{16,20}]icosa-1(19),14,16(20), 17-tetraen-14-yl] benzimidazole-5-carboxamide]
7.26 | COc1cc(C(=O)N2CCC[C@@H](N)C2)cc2nc(-c3cc4ccc5nc4n3C[C@H]3C[C@@H]3[C@@H](C)OCCC(=O)N[C@@H]5C)n(C)c12 [Example 162, (3~{S),5~{S},6~{R},12~{R})-18-[5-[(3~{R})-3-aminopiperidine-1-carbonyl]-7-methoxy-1-methyl-benzimidazol-2-yl]-6,12-dimethyl-7-oxa-1,11,20-triazatetracyclo[11.5.2.0^{3,5}.0^{16,19}] icosa-13(20),14,16(19),17-tetraen-10-one]
7.82 | COc1cc(C(=O)N2[C@H]3CC[C@@H]2[C@H](N)C3)cc2nc(-c3cc4ccc5nc4n3C[C@@H]3C[C@H]3COCCC(=O)N[C@@H]5C)c(C)n12 [Example 322, (3~{R},5~{R},12~{R})-18-[7-[(1~{R},2~{R},4~{S})-2-amino-7-azabicyclo[2.2.1]heptane-7-carbonyl]-5-methoxy-3-methyl-imidazo[1,2-a]pyridin-2-yl]-12-methyl-7-oxa-1,11,20-triazatetracyclo[11.5.2.0^{3,5}.0^{16,19}] icosa-13(20),14,16(19),17-tetraen-10-one]
5.33 | COc1cc(C(=O)N2CCC[C@@H](N)C2)cc2nc(-c3cc4ccc5cc4n3CCCC3CCN(CC3)C(=O)c3ccccc3-5)n(C)c12 [Example 55, 17-[5-[(3~{R})-3-aminopiperidine-1-carbonyl]-7-methoxy-1-methyl-benzimidazol-2-yl]-9,16-diazapentacyclo[14.5.2.2^{9,12).0^{2,7}.0^ {19,23}]pentacosa-1(22),2,4,6,17,19(23),20-heptaen-8-one]
4.74 | COc1cc(C(=O)N[C@H]2CNC[C@H]2F)cc2nc(-c3cc4ccc5nc4n3CCCCCCC(C)(C)C(=O)N[C@@H]5C)n(C)c12 [Example 199, ~{N}-[(3~{S),4~{R})-4-fluoropyrrolidin-3-yl]-7-methoxy-1-methyl-2-[(11~{R})-8,8,11-trimethyl-9-oxo-1,10,19-triazatricyclo[10.5.2.0^{15,18}]nonadeca-12(19),13,15(18),16-tetraen-17-yl]benzimidazole-5-carboxamide]
